Consider 27 compounds from patent US10851067B2, “Kv7 channel activators compositions and methods of use” (Knopp Biosciences LLC, priority 2018, dated 2020).

Assay [1] deals with T1, Kv7.2/7.3 (Homo sapiens, UniProt O43525+O43526). Nature of the assay: Kv7.2/7.3 Thallium Flux Assay. The class given is cell-based. The arrangement: host or cells: HEK cells, tetracycline-inducible expression. Conditions: read-out: Kv7.2/7.3 Activity: EC50 of Kv7.2/Kv7.3 activation. In a few lines:
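Tetracycline-induced (10 ng/mL) hKv7.2/7.3 cell line tested over eight concentrations, 0.014–30 μM, in 0.1% DMSO extracellular solution; FluxOR II thallium-sensitive dye read at Ex 475/Em 530 nm. After 15 sec baseline, thallium/potassium stimulus injected, endpoint at 90 sec; responses normalized to retigabine ([…] max), Hill fit gave EC50 and maximal response.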

The target in assay [2] is T1, Kv7.2/7.3. Nature of the assay: Kv7.2/7.3 FluxOR Potassium Ion Channel Assay (Invitrogen, F20015). The assay is classed as cell-based.

In the case of `CC(C)(CC(=O)Nc1nc2ccc(F)c(C#N)c2n1C1(C)CCC1)C1CC1` [Example 541, N-(7-cyano-6-fluoro-1-(1-methylcyclobutyl)-1H-benzo[d]imidazol-2-yl)-3-cyclopropyl-3-methylbutanamide], at Kv7.2/7.3 [1], the EC50 was below 1000 nM.
Compound `CCOC(=O)Nc1ccc(NCc2ccc(F)cc2)cc1N` [ezogabine] yielded an EC50 on Kv7.2/7.3 [2] of 1100 nM.
For the compound `COc1cc(C#N)cc2c1nc(NC(=O)CC1CC(F)(F)C1(F)F)n2C1(C)CCC1` (single isomer, unassigned) [Example 553, N-(6-cyano-4-methoxy-1-(1-methylcyclobutyl)-1H-benzo[d]imidazol-2-yl)-2-(2,2,3,3-tetrafluorocyclobutyl)acetamide], the EC50 at Kv7.2/7.3 [1] was below 1000 nM.
Take `CC1(n2c(NC(=O)CC3CC(F)(F)C3(F)F)nc3ccc(F)c(Br)c32)CCC1` (single isomer, unassigned) [Example 549, N-(7-bromo-6-fluoro-1-(1-methylcyclobutyl)-1H-benzo[d]imidazol-2-yl)-2-(2,2,3,3-tetrafluorocyclobutyl)acetamide]: the EC50 on Kv7.2/7.3 [1] is below 1000 nM.
Consider `CC(C)(C)n1c(NC(=O)CC2(C(F)(F)F)CC2)nc2cc(F)cc(F)c21` [Example 531, N-(1-(tert-butyl)-5,7-difluoro-1H-benzo[d]imidazol-2-yl)-2-(1-(trifluoromethyl)cyclopropyl)acetamide], for which, on Kv7.2/7.3 [1], the EC50 was below 1000 nM.
On the same count and under the same terms, then `CC(C(=O)Nc1nc2c(F)cc(C(C)(C)O)cc2n1C1CCC1)C1(C(F)(F)F)CC1` (single isomer, unassigned) [Example 508, N-(1-cyclobutyl-4-fluoro-6-(2-hydroxypropan-2-yl)-1H-benzo[d]imidazol-2-yl)-2-(1-(trifluoromethyl)cyclopropyl)propanamide], with 1000 to 3000 nM.
Regarding `CC1(n2c(NC(=O)CC3CC(F)(F)C3(F)F)nc3cc(F)c(Cl)cc32)CCC1` (single isomer, unassigned) [Example 539, N-(6-chloro-5-fluoro-1-(1-methylcyclobutyl)-1H-benzo[d]imidazol-2-yl)-2-(2,2,3,3-tetrafluorocyclobutyl)acetamide], the EC50 on Kv7.2/7.3 [1] is below 1000 nM.
The same measure, in the same setting: with `CC(C)(O)c1ccc2nc(NC(=O)CC3CC(F)(F)C3(F)F)n(C3(C)CCC3)c2c1` (stereo not drawn) [Example 491, N-(6-(2-hydroxypropan-2-yl)-1-(1-methylcyclobutyl)-1H-benzo[d]imidazol-2-yl)-2-(2,2,3,3-tetrafluorocyclobutyl)acetamide] the figure was below 1000 nM; with `CC(C)(O)c1ccc2nc(NC(=O)Cc3ccc(F)cc3F)n(C3(C)CCC3)c2c1` [Example 505, 2-(2,4-difluorophenyl)-N-(6-(2-hydroxypropan-2-yl)-1-(1-methylcyclobutyl)-1H-benzo[d]imidazol-2-yl)acetamide], below 1000 nM; with `CC(C)(C)n1c(NC(=O)CC2CC(F)(F)C2(F)F)nc2cc(F)c(F)cc21` (single isomer, unassigned) [Example 557, N-(1-(tert-butyl)-5,6-difluoro-1H-benzo[d]imidazol-2-yl)-2-(2,2,3,3-tetrafluorocyclobutyl)acetamide], below 1000 nM.
Take `CC1(n2c(NC(=O)CC3CC(F)(F)C3(F)F)nc3cc(F)ccc32)CCC1` (single isomer, unassigned) [Example 525, N-(5-fluoro-1-(1-methylcyclobutyl)-1H-benzo[d]imidazol-2-yl)-2-(2,2,3,3-tetrafluorocyclobutyl)acetamide]: the EC50 on Kv7.2/7.3 [1] is below 1000 nM.
On to `CC(C)(C)CC(=O)Nc1nc2ccc(C3(O)CCC3)c(C(F)(F)F)c2n1C1CCC1` [Example 490, N-(1-cyclobutyl-6-(1-hydroxycyclobutyl)-7-(trifluoromethyl)-1H-benzo[d]imidazol-2-yl)-3,3-dimethylbutanamide], for which the EC50 on Kv7.2/7.3 [1] is below 1000 nM.
Consider `CC(C)(C)CC(=O)Nc1nc2cccc(OC(F)(F)F)c2n1C1CCC1` [Example 516, N-(1-cyclobutyl-7-(trifluoromethoxy)-1H-benzo[d]imidazol-2-yl)-3,3-dimethylbutanamide], for which the EC50 at Kv7.2/7.3 [1] was below 1000 nM.
For the compound `CC(C)(CC(=O)Nc1nc2cc(F)ccc2n1C1(C)CCC1)C(F)F` [Example 524, 4,4-difluoro-N-(5-fluoro-1-(1-methylcyclobutyl)-1H-benzo[d]imidazol-2-yl)-3,3-dimethylbutanamide], the EC50 on Kv7.2/7.3 [1] was below 1000 nM.
`CC(C)(C)n1c(NC(=O)CC(C)(C)C(F)(F)F)nc2cc(F)cc(F)c21` [Example 530, N-(1-(tert-butyl)-5,7-difluoro-1H-benzo[d]imidazol-2-yl)-4,4,4-trifluoro-3,3-dimethylbutanamide]: the EC50 at Kv7.2/7.3 [1] is below 1000 nM.
Take `CC1(n2c(NC(=O)CC3CC(F)(F)C3(F)F)nc3c(F)cc(C#N)c(F)c32)CCC1` (single isomer, unassigned) [Example 542, N-(6-cyano-4,7-difluoro-1-(1-methylcyclobutyl)-1H-benzo[d]imidazol-2-yl)-2-(2,2,3,3-tetrafluorocyclobutyl)acetamide]: at Kv7.2/7.3 [1], the EC50 is below 1000 nM.
Regarding `CC(C)(C)CC(=O)Nc1nc2ccc(C#N)c(OC(F)(F)F)c2n1C1CCC1` [Example 498, N-(6-cyano-1-cyclobutyl-7-(trifluoromethoxy)-1H-benzo[d]imidazol-2-yl)-3,3-dimethylbutanamide], the EC50 on Kv7.2/7.3 [1] was below 1000 nM.
Take `CC(C(=O)Nc1nc2ccc(C(C)(C)O)cc2n1C1(C)CCC1)C(C)(C)C(F)(F)F` (single isomer, unassigned) [Example 492, 4,4,4-trifluoro-N-(6-(2-hydroxypropan-2-yl)-1-(1-methylcyclobutyl)-1H-benzo[d]imidazol-2-yl)-2,3,3-trimethylbutanamide]: the EC50 on Kv7.2/7.3 [1] is below 1000 nM.
Take `COc1cc(C#N)cc2c1nc(NC(=O)CC(C)(C)C(F)(F)F)n2C1(C)CCC1` [Example 554]: on Kv7.2/7.3 [1], the EC50 was below 1000 nM.
In the case of `CC(C)(O)c1ccc2nc(NC(=O)CC34CC(C3)C4)n(C3(C)CCC3)c2c1` [Example 511, 2-(bicyclo[1.1,1]pentan-1-yl)-N-(6-(2-hydroxypropan-2-yl)-1-(1-methylcyclobutyl)-1H-benzo[d]imidazol-2-yl)acetamide], the EC50 on Kv7.2/7.3 [1] was below 1000 nM.
For `[2H]C([2H])([2H])C(CC(=O)Nc1nc2c(F)cc(C#N)cc2n1C1(C)CCC1)(C([2H])([2H])[2H])C([2H])([2H])[2H]` [Example 521, N-(6-cyano-4-fluoro-1-(1-methylcyclobutyl)-1H-benzo[d]imidazol-2-yl)-3,3-bis(methyl-d3)butanamide], the EC50 at Kv7.2/7.3 [1] was below 1000 nM.
With `CC(C)(C)n1c(NC(=O)CC2CC(F)(F)C2(F)F)nc2c(F)cc(F)cc21` (single isomer, unassigned) [Example 560, N-(1-(tert-butyl)-4,6-difluoro-1H-benzo[d]imidazol-2-yl)-2-(2,2,3,3-tetrafluorocyclobutyl)acetamide], the EC50 on Kv7.2/7.3 [1] is below 1000 nM.
As to `CC(C)(C)n1c(NC(=O)CC2CC(F)(F)C2(F)F)nc2c(F)cc(C#N)c(F)c21` (single isomer, unassigned) [Example 496, N-(1-(tert-butyl)-6-cyano-4,7-difluoro-1H-benzo[d]imidazol-2-yl)-2-(2,2,3,3-tetrafluorocyclobutyl)acetamide], the EC50 at Kv7.2/7.3 [1] was below 1000 nM.
Same read-out and setting: with `CC1(n2c(NC(=O)CC3CC(F)(F)C3(F)F)nc3cc(F)cc(C#N)c32)CCC1` (single isomer, unassigned) [Example 545, N-(7-cyano-5-fluoro-1-(1-methylcyclobutyl)-1H-benzo[d]imidazol-2-yl)-2-(2,2,3,3-tetrafluorocyclobutyl)acetamide] the figure was below 1000 nM; with `CC1(n2c(NC(=O)CC3CC(F)(F)C3(F)F)nc3c(F)cc(C#N)cc32)CCC1` (single isomer, unassigned) [Example 512, N-(6-cyano-4-fluoro-1-(1-methylcyclobutyl)-1H-benzo[d]imidazol-2-yl)-2-(2,2,3,3-tetrafluorocyclobutyl)acetamide], below 1000 nM; with `CC1(n2c(NC(=O)CC3(C(F)(F)F)CC3)nc3cc(F)cc(F)c32)CCC1` [Example 522, N-(5,7-difluoro-1-(1-methylcyclobutyl)-1H-benzo[d]imidazol-2-yl)-2-(1-(trifluoromethyl)cyclopropyl)acetamide], below 1000 nM.
Take `CC(C(=O)Nc1nc2c(F)cc(C#N)c(F)c2n1C1(C)CCC1)C1(C(F)(F)F)CC1` (single isomer, unassigned) [Example 544, N-(6-cyano-4,7-difluoro-1-(1-methylcyclobutyl)-1H-benzo[d]imidazol-2-yl)-2-(1-(trifluoromethyl)cyclopropyl)propanamide]: the EC50 on Kv7.2/7.3 [1] was below 1000 nM.
